Each block holds one molecule with its values, some of them ahead of it.
Experiments:
[1] = target: T1, Dectin-1 (Homo sapiens, UniProt Q9BXN2); assay: Sugar competition EIA, Fc.Dectin-1 binding to GLPS-F3; conditions: sugar 1 mg/ml
T1 construct: The extracellular domains of lectin receptors, TREMs and TLTs were cloned by the reverse-transcriptase polymerase chain reaction (RT-PCR); made in house; host or cells: 293-F (FreeStyle 293) cells
T1 sequence (Q9BXN2 66-247 limits assumed): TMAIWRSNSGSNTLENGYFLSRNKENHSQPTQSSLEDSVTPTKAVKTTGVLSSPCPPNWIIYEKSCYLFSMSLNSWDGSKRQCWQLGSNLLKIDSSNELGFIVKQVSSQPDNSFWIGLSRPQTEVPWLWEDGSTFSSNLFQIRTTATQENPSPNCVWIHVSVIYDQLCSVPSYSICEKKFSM
Description: (§1) The interaction between GLPS-F3 and receptor.Fc was then tested. Unbiotinylated GLPS-F3 was immobilized at 100 ng/well as described above, and 100 μL receptor.Fc fusion protein (1 μg/ml in 2 mM MgCl2/2 mM CaCl2/1% BSA/TBST) was added into each well and incubated for 1 hour at room temperature. After washing with TBST, wells were incubated with peroxidase-conjugated goat anti-human IgG Ab (1:5000 dilution, Jackson ImmunoResearch Laboratories) in blocking buffer at room temperature for 30 min. Wells were incubated with 100 μL TMB substrate for 15 min after TBST washing and read at 450 nm in a Fusion plate reader (Perkin Elmer). The results were normalized with respect to Fc.Dectin-1 binding (Dectin-1 is a known lectin receptor that binds to β-1,3-glucan which is the backbone found in GLPS-F3). FIG. 6B depicts in graphical form the affinity of each receptor for GLPS-F3 relative to Dectin-1. […] There was also weaker but positive GLPS-F3 binding ability (25-50% binding intensity compared to Fc.dectin-1) found in Fc.NKG2D, Fc.MINCLE, Fc.mKCR, DCAL1.Fc, DEC205.Fc, Endo180.Fc and NKp30(NCR3).Fc.
(§2) To understand the interaction of GLPS-F3 with specific innate immunity receptors, the polysaccharides mannan and β-glucan and the monosaccharides D-mannose (Man), D-glucose (Glc), N-acetyl-glucosamine (GlcNAc), D-galactose (Gal), N-acetyl-galactosamine (GalNAc), L-fucose (Fuc) and sialic acid, were used in a competition assay. […] The assays were carried out as in Example 9, with the addition of 1 mg/ml of each polysaccharide or monosaccharide.

[2] = target: T2, Langerin (Homo sapiens, UniProt Q9UJ71); assay: Sugar competition EIA, Fc.Langerin binding to GLPS-F3; conditions: sugar 1 mg/ml
T2 construct: The extracellular domains of lectin receptors, TREMs and TLTs were cloned by the reverse-transcriptase polymerase chain reaction (RT-PCR); made in house; host or cells: 293-F (FreeStyle 293) cells
Description: as §1, §2

[3] = target: T3, DC-SIGN (Homo sapiens, UniProt Q9NNX6); assay: Sugar competition EIA, Fc.DC-SIGN binding to GLPS-F3; conditions: sugar 1 mg/ml
T3 construct: The extracellular domains of lectin receptors, TREMs and TLTs were cloned by the reverse-transcriptase polymerase chain reaction (RT-PCR); made in house; host or cells: 293-F (FreeStyle 293) cells
T3 sequence (Q9NNX6 59-404 limits assumed): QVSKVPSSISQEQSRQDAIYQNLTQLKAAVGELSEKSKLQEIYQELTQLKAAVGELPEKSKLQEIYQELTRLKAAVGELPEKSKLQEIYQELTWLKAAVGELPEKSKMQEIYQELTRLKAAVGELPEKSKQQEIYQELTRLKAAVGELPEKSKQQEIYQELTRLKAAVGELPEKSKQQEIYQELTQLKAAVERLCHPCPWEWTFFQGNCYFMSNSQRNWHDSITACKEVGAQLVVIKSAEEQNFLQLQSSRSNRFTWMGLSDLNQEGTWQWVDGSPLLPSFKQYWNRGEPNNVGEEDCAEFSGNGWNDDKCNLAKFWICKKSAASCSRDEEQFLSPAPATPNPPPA
Description: as §1, §2

[4] = target: T4, TLR4.Fc (Homo sapiens, UniProt O00206); assay: Sugar competition EIA, TLR4.Fc binding to GLPS-F3; conditions: sugar 1 mg/ml
T4 construct: The extracellular domains of several innate immunity receptors from immune cells were cloned by reverse-transcription polymerase chain reaction (RT-PCR); made in house; host or cells: 293-F (FreeStyle 293) cells
Description: as §1, §2

[5] = target: T5, MMR.Fc (Homo sapiens, UniProt P22897); assay: Sugar competition EIA, MMR.Fc binding to GLPS-F3; conditions: sugar 1 mg/ml
T5 construct: The extracellular domains of lectin receptors, TREMs and TLTs were cloned by the reverse-transcriptase polymerase chain reaction (RT-PCR); made in house; host or cells: 293-F (FreeStyle 293) cells
T5 sequence (P22897 19-1389 limits assumed): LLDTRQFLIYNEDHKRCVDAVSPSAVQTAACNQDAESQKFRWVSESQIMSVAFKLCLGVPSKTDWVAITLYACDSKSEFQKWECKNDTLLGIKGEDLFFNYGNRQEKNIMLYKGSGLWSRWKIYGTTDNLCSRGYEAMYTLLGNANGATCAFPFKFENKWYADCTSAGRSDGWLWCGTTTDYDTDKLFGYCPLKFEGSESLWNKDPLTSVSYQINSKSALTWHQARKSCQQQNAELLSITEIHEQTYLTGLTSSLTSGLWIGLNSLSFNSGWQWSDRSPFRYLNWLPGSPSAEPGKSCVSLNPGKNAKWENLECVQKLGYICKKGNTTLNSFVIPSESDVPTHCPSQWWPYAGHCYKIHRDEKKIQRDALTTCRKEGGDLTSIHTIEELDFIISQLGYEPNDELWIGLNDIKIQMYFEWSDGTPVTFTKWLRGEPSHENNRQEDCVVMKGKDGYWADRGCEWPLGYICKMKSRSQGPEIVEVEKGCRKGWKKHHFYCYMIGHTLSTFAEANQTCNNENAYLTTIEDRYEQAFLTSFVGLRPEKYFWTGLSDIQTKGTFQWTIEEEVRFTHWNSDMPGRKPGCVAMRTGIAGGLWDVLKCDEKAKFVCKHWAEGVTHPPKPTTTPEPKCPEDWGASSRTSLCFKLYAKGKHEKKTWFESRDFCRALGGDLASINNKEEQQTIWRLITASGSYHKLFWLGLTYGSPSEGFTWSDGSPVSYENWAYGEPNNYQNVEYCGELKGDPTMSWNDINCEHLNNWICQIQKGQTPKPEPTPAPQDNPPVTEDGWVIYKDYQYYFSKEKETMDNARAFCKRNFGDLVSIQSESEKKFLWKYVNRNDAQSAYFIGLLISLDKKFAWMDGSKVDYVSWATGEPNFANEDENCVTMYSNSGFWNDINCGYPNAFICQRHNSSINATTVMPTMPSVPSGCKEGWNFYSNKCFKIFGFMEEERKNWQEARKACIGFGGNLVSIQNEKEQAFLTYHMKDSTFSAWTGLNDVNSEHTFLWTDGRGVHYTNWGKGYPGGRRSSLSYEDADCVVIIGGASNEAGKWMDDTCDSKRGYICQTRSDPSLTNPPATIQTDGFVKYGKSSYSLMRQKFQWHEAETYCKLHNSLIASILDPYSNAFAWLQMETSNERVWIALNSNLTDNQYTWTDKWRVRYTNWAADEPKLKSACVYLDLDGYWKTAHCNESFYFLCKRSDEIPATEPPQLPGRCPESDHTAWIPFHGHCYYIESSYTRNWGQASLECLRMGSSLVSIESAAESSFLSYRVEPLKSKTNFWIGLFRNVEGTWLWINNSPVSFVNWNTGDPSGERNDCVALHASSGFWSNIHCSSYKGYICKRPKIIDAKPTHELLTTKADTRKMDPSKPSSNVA
Description: as §1, §2

[6] = target: T6, CLEC-2 (Homo sapiens, UniProt Q9P126); assay: Sugar competition EIA, Fc.CLEC-2 binding to GLPS-F3; conditions: sugar 1 mg/ml
T6 construct: The extracellular domains of lectin receptors, TREMs and TLTs were cloned by the reverse-transcriptase polymerase chain reaction (RT-PCR); made in house; host or cells: 293-F (FreeStyle 293) cells
Description: as §1, §2

[7] = target: T7, CLEC-6 (Homo sapiens, UniProt Q8WXI8); assay: Sugar competition EIA, Fc.CLEC-6 binding to GLPS-F3; conditions: sugar 1 mg/ml
T7 construct: The extracellular domains of lectin receptors, TREMs and TLTs were cloned by the reverse-transcriptase polymerase chain reaction (RT-PCR); made in house; host or cells: 293-F (FreeStyle 293) cells
T7 sequence (Q8WXI8 39-215 limits assumed): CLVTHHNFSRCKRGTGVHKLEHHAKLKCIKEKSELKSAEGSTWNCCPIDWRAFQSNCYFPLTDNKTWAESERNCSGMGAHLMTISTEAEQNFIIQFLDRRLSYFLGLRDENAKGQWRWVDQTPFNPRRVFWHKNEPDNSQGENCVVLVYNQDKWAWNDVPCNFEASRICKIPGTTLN
Description: as §1, §2

[8] = target: T8, DVLR1/CLEC5A (Homo sapiens, UniProt Q9NY25); assay: DV-induced TNF-α secretion from human macrophages with anti-DVLR1/CLEC5A mAbs; format: cell-based
T8 construct: endogenous in cells; host or cells: human CD14+ PBMC-derived macrophages (M-CSF, 6 days)
T8 sequence (Q9NY25 1-188): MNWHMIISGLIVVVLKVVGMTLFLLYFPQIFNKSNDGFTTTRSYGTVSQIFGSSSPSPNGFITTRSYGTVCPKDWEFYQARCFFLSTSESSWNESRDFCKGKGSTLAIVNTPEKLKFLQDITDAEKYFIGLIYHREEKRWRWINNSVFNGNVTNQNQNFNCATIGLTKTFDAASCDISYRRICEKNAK
Source text: Monoclonal antibodies against DVLR1/CLEC5A were generated using standard techniques. Briefly, mice were immunized with DVLR-1.Fc fusion protein, and hybridomas were formed by fusing spienocytes from the mice with P3/NSI/1-Ag4-1 [NS-1] myeloma cells (ATCC TIB-18). Among the mAbs generated, clone 9B12, the subclones of 3E12 (clones 3E12A2, 3E12C1, 3E12G9), and clone 8H8F5 suppressed TNF-α release from macrophages after infection with DEN1 (strain 766733A), DEN2 (strain PL046), DEN3 (strain H-87), and DEN4 (strain 866146A) in a dose-dependent manner. […] In accordance with standard nomenclature, each antibody is referred to via the clone number of the hybridoma that secretes it.
According to embodiments illustrated in FIG. 19, DVLR1/CLEC5A is critical for DV-mediated TNF-α, but not IFN-α, secretion. More specifically, FIG. 19a illustrates the dose-dependency of DV and UV-DV induced TNF-α secretion by macrophages measured by ELISA at 6 h and 12 h p.i. FIG. 19b illustrates the kinetics of TNF-α expression after DV infection (m.o.i.=5). FIG. 19c illustrates the effects of DVLR1/CLEC5A and DC-SIGN shRNAs on the secretion of TNF-α, IL-6, MIP1-α, IL-8, IP-10, and IFN-α from DV-infected macrophages (m.o.i.=5). In FIG. 19d, knockdown experiments with receptor specific shRNAs illustrating that DV-induced IFN-α secretion is via the TLR7-MyD88 pathway and TNF-α secretion is via DVLR1/CLEC5A-TLR7-MyD88 pathway. FIG. 19e illustrates antagonistic anti-DVLR1/CLEC5A mAbs inhibiting TNF-α secretion in response to DV serotypes 1-4 is inhibited (see Table 3).
M.R. mAb (anti-mannose receptor mAb; mIgG1) and murine IgM (mIgM) were used as negative controls. In both FIG. 19d and FIG. 19e, macrophages were infected with DV (m.o.i.=5) and harvested at 36 h p.i. for cytokine assays. Data are expressed as mean±s.d. of three independent experiments (using material from at least three different donors). Two-tailed, Student's t-tests were performed. “ND” represents not detected.

[9] = antibody 10 μg/sample, p vs isotype control, m.o.i.=5, 36 h p.i.

T6 sequence (Q9P126 55-229 limits assumed): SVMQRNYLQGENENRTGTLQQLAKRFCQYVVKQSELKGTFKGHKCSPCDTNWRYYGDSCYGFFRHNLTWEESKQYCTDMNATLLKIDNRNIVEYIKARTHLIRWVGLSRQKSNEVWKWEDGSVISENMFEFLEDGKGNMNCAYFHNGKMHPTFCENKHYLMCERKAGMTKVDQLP
T4 sequence (O00206 24-631 limits assumed): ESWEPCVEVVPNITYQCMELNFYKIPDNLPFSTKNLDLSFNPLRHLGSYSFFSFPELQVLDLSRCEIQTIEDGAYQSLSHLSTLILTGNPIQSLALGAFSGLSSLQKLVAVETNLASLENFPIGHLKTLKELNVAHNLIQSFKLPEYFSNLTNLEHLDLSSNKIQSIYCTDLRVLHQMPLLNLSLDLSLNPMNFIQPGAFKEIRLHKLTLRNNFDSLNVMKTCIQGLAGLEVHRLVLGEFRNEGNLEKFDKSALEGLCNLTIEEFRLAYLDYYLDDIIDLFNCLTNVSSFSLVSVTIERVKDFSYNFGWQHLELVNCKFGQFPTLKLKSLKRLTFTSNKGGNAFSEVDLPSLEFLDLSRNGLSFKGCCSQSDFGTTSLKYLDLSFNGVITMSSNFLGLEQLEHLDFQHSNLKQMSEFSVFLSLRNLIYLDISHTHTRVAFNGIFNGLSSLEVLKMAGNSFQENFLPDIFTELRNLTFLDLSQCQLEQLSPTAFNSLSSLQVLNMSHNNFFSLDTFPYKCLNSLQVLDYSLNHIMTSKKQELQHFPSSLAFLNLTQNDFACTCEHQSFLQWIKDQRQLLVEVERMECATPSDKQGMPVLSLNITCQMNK
T2 sequence (Q9UJ71 65-328 limits assumed): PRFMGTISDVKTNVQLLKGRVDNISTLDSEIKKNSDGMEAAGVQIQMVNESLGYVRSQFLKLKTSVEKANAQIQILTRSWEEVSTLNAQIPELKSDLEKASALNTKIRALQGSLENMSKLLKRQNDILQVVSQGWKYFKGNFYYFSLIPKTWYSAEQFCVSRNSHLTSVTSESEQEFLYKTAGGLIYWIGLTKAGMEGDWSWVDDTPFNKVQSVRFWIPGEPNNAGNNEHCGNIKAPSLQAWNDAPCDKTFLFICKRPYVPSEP

Percentage of binding of Dectin-1 Fc fusion to GLPS-F3 relative to binding in absence of sugar competitor [1]: 88 ± 2.6%
Percentage of binding of Langerin Fc fusion to GLPS-F3 relative to binding in absence of sugar competitor [2]: 97 ± 0.7%
Percentage of binding of DC-SIGN Fc fusion to GLPS-F3 relative to binding in absence of sugar competitor [3]: 110 ± 3.1%
Percentage of binding of TLR4.Fc to GLPS-F3 relative to binding in absence of sugar competitor [4]: 95 ± 4.1%
Percentage of binding of MMR.Fc to GLPS-F3 relative to binding in absence of sugar competitor [5]: 80 ± 4.2%
Percentage of binding of CLEC-2 Fc fusion to GLPS-F3 relative to binding in absence of sugar competitor [6]: 110 ± 11.4%
Percentage of binding of CLEC-6 Fc fusion to GLPS-F3 relative to binding in absence of sugar competitor [7]: 96 ± 2.4%
Molecule: CC(=O)N[C@H]1C(O)O[C@H](CO)[C@H](O)[C@@H]1O (stereo partly drawn) [GalNAc, N-acetyl-galactosamine]

Antagonistic DV1 (suppression of DV-induced TNF-α secretion) [8, 9]: * (“*” - p < 0.05)
Antagonistic DV2 (suppression of DV-induced TNF-α secretion) [8, 9]: *** (“***” - p < 0.001)
Antagonistic DV3 (suppression of DV-induced TNF-α secretion) [8, 9]: ** (“**” - p < 0.01)
Antagonistic DV4 (suppression of DV-induced TNF-α secretion) [8, 9]: * (“*” - p < 0.05)
TNF-α release from macrophages after infection with DEN1, DEN2, DEN3 and DEN4 ([8]; dose-dependent manner, ELISA of culture supernatants): suppressed
B1: 8H8F5: anti-human DVLR1/CLEC5A monoclonal antibody; VH SEQ ID NO: 64, VL SEQ ID NO: 65 (antibody, V domains shown)
VH: ESGRGLVQPGGSRKLSCAASGFTFSTSGMHWVRQAPEKGLEWVAYISSGSTTIYHADTVKGRFTISRDNPKNTLFLQMTSLRSEDTAMYYCARSGQFGNYFDYWGQGTTLTVSS
VL: MTQSPKFLLVSAGDRVTLTCKASQSVNNDVYWYQQEPGQSPKLLIYYASNRYTGVPDRFTGSGYGTDFTFTISTVQSEDLAVYFCQHDYSSPYTFGGGTKLEIKR
